The text below walks through data of the NIST ThermoML archive (doi:10.1016/j.jct.2011.05.003).

Numbers after ± are expanded uncertainties.

The conditions of this series: 101.33 kPa, Liquid; for speed of sound: Sing-around technique in a fixed-path interferometer; for mass density: Vibrating tube method.

As for `CCCNCCC` [dipropylamine], the speed of sound (commonly how fast a sound wave travels through the sample) is recorded as 1209.4 ± 1.2 m/s (293.15 K), 1188 ± 1.2 m/s (298.15 K) and 1167.6 ± 1.2 m/s (303.15 K). Further, the mass density – broadly, the mass of a sample divided by its volume – by setting is: (293.15 K) 738.259 ± 0.25 kg/m3; (298.15 K) 733.81 ± 0.25 kg/m3.

For the compound `CCN(CC)CC` [triethylamine], the speed of sound came to 1132.5 ± 0.8 m/s (293.15 K), 1110.9 ± 0.8 m/s (298.15 K) and 1090.7 ± 0.78 m/s (303.15 K). Moreover, the mass density by setting is: (293.15 K) 727.333 ± 0.17 kg/m3; (298.15 K) 722.729 ± 0.17 kg/m3; (303.15 K) 718.092 ± 0.17 kg/m3.

Take `CCCCNCCCC` [dibutylamine]: the speed of sound (293.15 K) is 1261.2 ± 0.83 m/s, the speed of sound (298.15 K) is 1241.4 ± 0.82 m/s and the speed of sound (303.15 K) was found to be 1222.2 ± 0.82 m/s. In addition, the mass density runs as follows: (293.15 K) 759.529 ± 0.16 kg/m3; (298.15 K) 755.577 ± 0.16 kg/m3; (303.15 K) 751.407 ± 0.16 kg/m3.

With `CCCCCC(C)=O` [2-heptanone], the speed of sound is listed as 1281.9 ± 1.2 m/s (293.15 K), 1262.5 ± 1.2 m/s (298.15 K) and 1244.1 ± 1.2 m/s (303.15 K). In addition, the mass density is, setting by setting: (293.15 K) 815.433 ± 0.24 kg/m3; (298.15 K) 811.139 ± 0.24 kg/m3; (303.15 K) 806.827 ± 0.24 kg/m3.
